Test results as given in US11957683B2, “Bicyclic compounds” (Aligos Therapeutics, Inc., priority 2021, dated 2024).
Like-named read-outs stand apart in the source and are kept apart here.

Legend:
[1] = system: HBV; assay: HBV-DNA antiviral assay using HepG2.117 cells; format: cell-based, HBV genotype D; settings: Hepatitis B virus
Procedure: (§1) The following assay procedure describes the HBV antiviral assay, using HepG2.117 cells, which carry a stably integrated genotype D HBV genome under the control of a Tet-off promoter, and intracellular HBV DNA quantification as endpoint. Cell viability is assessed in parallel by measuring the intracellular ATP content using CellTiter-Glo 2.0 (Promega).
On day 0, HepG2.117 cells (which are maintained in routine cell culture with doxycycline present in the medium at a final concentration of 1 μg/mL) are seeded in 96-well plates (white with clear bottom) at a density of 2.0×10^4 cells/well (0.1 mL/well) in medium without doxycycline to induce pgRNA transcription and subsequent formation of HBV particles. The cells are incubated at 37° C. and 5% CO2.
(§2) On day 1, medium is removed from each well, the test articles are diluted in culture medium without doxcycyline and 100 μL was added to cell culture wells (9 concentrations, 4-fold dilution). For each plate, 6 untreated (merely DMSO) wells are included. The final concentration of DMSO in the culture medium is 2%. Each plate is prepared in duplicate (one for HBV DNA extraction, one for CellTiter-Glo 2.0 measurement). The cells are incubated at 37° C. and 5% CO2 for 3 days.
(§3) On day 4, cell viability is assessed using CellTiter-Glo 2.0 and cell lysates are prepared for HBV DNA extraction and subsequent quantification by qPCR.
Medium is removed from each well and 100 μL of 0.33% NP-40 in H2O was added to each well. Plates are sealed, incubated at 4° C. for 5 mins, vortexed extensively and centrifuged briefly. Next, 35 μL of lysate is added to 65 μL QuickExtract DNA Extraction Solution (Epicentre) in a PCR plate for each well. PCR plate is incubated at 65° C. for 6 mins, 98° C. for 2 mins and finally cooled to 4° C. HBV DNA is then quantified by qPCR with HBV-specific primers and probes as specified in Table 2 using the Bio-Rad SSOAdvanced Universal Probes Supermix on a CFX96 machine (Bio-Rad). The PCR cycle program consisted of 95° C. for 3 mins, followed by 40 cycles at 95° C. for 10 sec and 60° C. for 30 sec.
A DNA standard is prepared by dilution of an IDT gBlock corresponding to the amplicon with concentrations ranging from 10^2 to 10^8 copies/input (i.e., per 4 μL) and used to generate a standard curve by plotting Cq values vs. HBV DNA standard concentration. The quantity of HBV DNA in each sample is determined by interpolating from the standard curve.
(§4) Cell viability is calculated as follows: % Cell viability=(luminescence value of test sample)/(average luminescence value of 2% DMSO control)×100%. HBV DNA inhibition was calculated as follows: 100−(HBV DNA copy number of test sample)/(average HBV DNA copy number of 2% DMSO control)×100%. No normalization to entecavir is required due to the excellent dynamic window of this assay. The CC50, EC50 and EC90 values were determined by dose-response curves fitted using non-linear regression.

[2] = Cell viability by CellTiter-Glo 2.0 (intracellular ATP) in HepG2.117 cells; format: cell-based; settings: human, CellTiter-Glo 2.0, HepG2.117 cells, 3 days incubation
Procedure: as §1, §2, §3
Using the other plates, the cell viability is quantified by CellTiter-Glo 2.0 according to the manufacturer's manual. In brief, 100 μL of reagent solution is added to the culture plates and shaken for 2′. The plates are incubated at rt for 10 min and luminescence signal is subsequently measured on a VarioSkan Lux (ThermoFisher) plate reader.
as §4

[3] = 72 h, HBV DNA inhibition, intracellular HBV DNA by qPCR, HepG2.117 cells, 3 days incubation, read-out: EC50

Row | SMILES | EC50 [1, 3] [nM] | CC50 at 3 days [2] [µM] | EC50 ([1]; HepG2.117, 72 h) [nM]
1 | C=C[C@H](C)Nc1nc2c(c(=O)n1-c1ccc(C(=O)NC)cc1Cl)C[C@@H](C)N(C(=O)c1ccc(Br)c(C(F)(F)F)c1)C2 (atropisomer, axis not shown) [Compound 44, 4-[(6R)-7-[4-bromo-3-(trifluoromethyl)benzoyl]-6-methyl-2-[[(1S)-1-methylallyl]amino]-4-oxo-6,8-dihydro-5H-pyrido[3,4-d]pyrimidin-3-yl]-3-chloro-N-methyl-benzamide] | < 50 | > 50 | –
2 | C=CC(C)Nc1nc2c(c(=O)n1-c1ccc(C(=O)NC)cc1)C[C@@H](C)N(C(=O)c1ccc(Br)c(C(F)(F)F)c1)C2 (single isomer, unassigned) [Compound 2a] | < 50 | > 0.5 | –
3 | C=CC(C)Nc1nc2c(c(=O)n1-c1ccc(-c3[nH]nnc3C)cc1)C[C@@H](C)N(C(=O)c1ccc(Br)c(C(F)(F)F)c1)C2 (single isomer, unassigned) [Compound 3a] | < 50 | > 0.5 | –
4 | C=C[C@H](C)Nc1nc2c(c(=O)n1-c1ccc(OCC(C)O)cc1)C[C@@H](C)N(C(=O)c1ccc(Br)c(C(F)(F)F)c1)C2 (stereo in doubt) [Compound 31, (R)-7-(4-bromo-3-(trifluoromethyl)benzoyl)-2-(((S)-but-3-en-2-yl)amino)-3-(4-((S)-2-hydroxypropoxy)phenyl)-6-methyl-5,6,7,8-tetrahydropyrido[3,4-d]pyrimidin-4(3H)-one] | < 50 | 29.6 | –
5 | C=CC(C)(C)Nc1nc2c(c(=O)n1-c1ccc(C(=O)NC)cc1)C[C@@H](C)N(C(=O)c1ccc(Br)c(C(F)(F)F)c1)C2 [Compound 1, (R)-4-(7-(4-bromo-3-(trifluoromethyl)benzoyl)-6-methyl-2-((2-methylbut-3-en-2-yl)amino)-4-oxo-5,6,7,8-tetrahydropyrido[3,4-d]pyrimidin-3(4H)-yl)-N-methylbenzamide] | < 50 | > 0.5 | –
6 | C=C[C@H](C)Nc1nc2c(c(=O)n1-c1ccc(-c3nnc(C)[nH]3)cc1)C[C@@H](C)N(C(=O)c1ccc(Br)c(C(F)(F)F)c1)C2 [Compound 4a, (R)-7-(4-bromo-3-(trifluoromethyl)benzoyl)-2-(((S)-but-3-en-2-yl)amino)-6-methyl-3-(4-(5-methyl-4H-1,2,4-triazol-3-yl)phenyl)-5,6,7,8-tetrahydropyrido[3,4-d]pyrimidin-4(3H)-one] | – | > 0.5 | < 50
7 | C=CCNc1nc2c(c(=O)n1-c1ccc(C(=O)NC)cc1)C[C@@H](C)N(C(=O)c1ccc(Br)c(C(F)(F)F)c1)C2 [Compound 5] | < 50 | > 50 | –
8 | C=CCN(C)c1nc2c(c(=O)n1-c1ccc(C(=O)NC)cc1)C[C@@H](C)N(C(=O)c1ccc(Br)c(C(F)(F)F)c1)C2 [Compound 6] | < 50 | > 0.5 | –
9 | CNC(=O)c1ccc(-n2c(NCC=C(C)C)nc3c(c2=O)C[C@@H](C)N(C(=O)c2ccc(Br)c(C(F)(F)F)c2)C3)cc1 [Compound 7] | < 50 | 7.35 | –
10 | C=CC1(Nc2nc3c(c(=O)n2-c2ccc(C(=O)NC)cc2)C[C@@H](C)N(C(=O)c2ccc(Br)c(C(F)(F)F)c2)C3)CCC1 [Compound 8] | < 50 | 7.33 | –
11 | C=C[C@H](C)Nc1nc2c(c(=O)n1-c1cc(C(=O)NC)n(C)n1)C[C@@H](C)N(C(=O)c1ccc(Br)c(C(F)(F)F)c1)C2 [Compound 9, 3-((R)-7-(4-bromo-3-(trifluoromethyl)benzoyl)-2-(((S)-but-3-en-2-yl)amino)-6-methyl-4-oxo-5,6,7,8-tetrahydropyrido[3,4-d]pyrimidin-3(4H)-yl)-N,1-dimethyl-1H-pyrazole-5-carboxamide] | < 50 | > 50 | –
12 | C=CC(C)N(C)c1nc2c(c(=O)n1-c1ccc(C(=O)NC)cc1)C[C@@H](C)N(C(=O)c1ccc(Br)c(C(F)(F)F)c1)C2 (stereo partly drawn) [Compound 10a] | < 50 | > 50 | –
13 | C=CC(Nc1nc2c(c(=O)n1-c1ccc(C(=O)NC)cc1)C[C@@H](C)N(C(=O)c1ccc(Br)c(C(F)(F)F)c1)C2)C1CC1 (stereo partly drawn) [Compound 11a] | < 50 | > 50 | –
14 | C=C[C@H](C)Nc1nc2c(c(=O)n1-c1ccc(OC3CC3)cc1)C[C@@H](C)N(C(=O)c1ccc(Br)c(C(F)(F)F)c1)C2 [Compound 12, (R)-7-(4-bromo-3-(trifluoromethyl)benzoyl)-2-((S)-but-3-en-2-ylamino)-3-(4-cyclopropoxyphenyl)-6-methyl-5,6,7,8-tetrahydropyrido[3,4-d]pyrimidin-4(3H)-one] | < 50 | > 50 | –
15 | C=C[C@H](C)Nc1nc2c(c(=O)n1-c1ccc3c(c1)nnn3C)C[C@@H](C)N(C(=O)c1ccc(Br)c(C(F)(F)F)c1)C2 [Compound 13, (R)-7-(4-bromo-3-(trifluoromethyl)benzoyl)-2-(((S)-but-3-en-2-yl)amino)-6-methyl-3-(1-methyl-1H-benzo[d][1,2,3]triazol-5-yl)-5,6,7,8-tetrahydropyrido[3,4-d]pyrimidin-4(3H)-one] | < 50 | 48 | –
16 | CNC(=O)c1ccc(-n2c(C#CC(C)(C)N)nc3c(c2=O)C[C@@H](C)N(C(=O)c2ccc(Br)c(C(F)(F)F)c2)C3)cc1 [Compound 14, (R)-4-(2-(3-amino-3-methylbut-1-yn-1-yl)-7-(4-bromo-3-(trifluoromethyl)benzoyl)-6-methyl-4-oxo-5,6,7,8-tetrahydropyrido[3,4-d]pyrimidin-3(4H)-yl)-N-methylbenzamide] | 50 to 500 | > 0.5 | –
17 | C=CC(Nc1nc2c(c(=O)n1-c1ccc(C(=O)NC)cc1)C[C@@H](C)N(C(=O)c1ccc(Br)c(C(F)(F)F)c1)C2)C1CCC1 (stereo partly drawn) [Compound 15] | < 50 | > 0.5 | –
18 | C=CC(COC)Nc1nc2c(c(=O)n1-c1ccc(C(=O)NC)cc1)C[C@@H](C)N(C(=O)c1ccc(Br)c(C(F)(F)F)c1)C2 (stereo partly drawn) [Compound 16] | < 50 | > 0.5 | –
19 | C=C[C@H](C)Nc1nc2c(c(=O)n1-c1ccc3c(c1)ncn3C)C[C@@H](C)N(C(=O)c1ccc(Br)c(C(F)(F)F)c1)C2 [Compound 17, (R)-7-(4-bromo-3-(trifluoromethyl)benzoyl)-2-(((S)-but-3-en-2-yl)amino)-6-methyl-3-(1-methyl-1H-benzo[d]imidazol-5-yl)-5,6,7,8-tetrahydropyrido[3,4-d]pyrimidin-4(3H)-one] | < 50 | > 0.5 | –
20 | C=C[C@@H](C)Nc1nc2c(c(=O)n1-c1ccc3c(c1)ncn3C)C[C@@H](C)N(C(=O)c1ccc(Br)c(C(F)(F)F)c1)C2 [Compound 18, (R)-7-(4-bromo-3-(trifluoromethyl)benzoyl)-2-(((R)-but-3-en-2-yl)amino)-6-methyl-3-(1-methyl-1H-benzo[d]imidazol-5-yl)-5,6,7,8-tetrahydropyrido[3,4-d]pyrimidin-4(3H)-one] | < 50 | > 0.5 | –
21 | C=C[C@@H](C)Nc1nc2c(c(=O)n1-c1ccc(C(=O)NC)c(Cl)c1)C[C@@H](C)N(C(=O)c1ccc(Br)c(C(F)(F)F)c1)C2 [Compound 19, 4-((R)-7-(4-bromo-3-(trifluoromethyl)benzoyl)-2-(((R)-but-3-en-2-yl)amino)-6-methyl-4-oxo-5,6,7,8-tetrahydropyrido[3,4-d]pyrimidin-3(4H)-yl)-2-chloro-N-methylbenzamide] | < 50 | > 0.5 | –
